Source: the supplement of paper PMC10307832

Columns and labels:
Experiment in all cases: relative viability (nuclei count vs DMSO), 5 days (fraction); higher = more cells survive
[1] = compound: C[C@@H](C(=O)N[C@@H](C1CCCCC1)C(=O)N2CCC[C@H]2C(=O)N[C@@H]3[C@@H](CC4=CC=CC=C34)OCC#CC#CCO[C@@H]5CC6=CC=CC=C6[C@@H]5NC(=O)[C@@H]7CCCN7C(=O)[C@H](C8CCCCC8)NC(=O)[C@H](C)NC)NC [AZD5582] + Cc1cc(Nc2cc(N3CCN(C)CC3)nc(Sc3ccc(NC(=O)C4CC4)cc3)n2)n[nH]1 [Tozasertib] (partner 0.1 µM)
Method in brief: (§1)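 Dosing by pin tool came one day after lung cancer cell lines were seeded in 1536-well plates, using either one drug or a fixed anchor-drug dose plus five library-drug doses (not always all listed) in √10 steps. After 5 days, nuclei were counted on 4× images. Relative viability is treated-well nuclei count divided by vehicle-well nuclei count, and values are medians of duplicate plates.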

[2] = compound: C[C@@H](C(=O)N[C@@H](C1CCCCC1)C(=O)N2CCC[C@H]2C(=O)N[C@@H]3[C@@H](CC4=CC=CC=C34)OCC#CC#CCO[C@@H]5CC6=CC=CC=C6[C@@H]5NC(=O)[C@@H]7CCCN7C(=O)[C@H](C8CCCCC8)NC(=O)[C@H](C)NC)NC [AZD5582] + NC(=O)Nc1cc(-c2cccc(F)c2)sc1C(=O)N[C@H]1CCCNC1 [AZD7762] (partner 0.2 µM)
Method in brief: as §1

[3] = compound: C[C@@H](C(=O)N[C@@H](C1CCCCC1)C(=O)N2CCC[C@H]2C(=O)N[C@@H]3[C@@H](CC4=CC=CC=C34)OCC#CC#CCO[C@@H]5CC6=CC=CC=C6[C@@H]5NC(=O)[C@@H]7CCCN7C(=O)[C@H](C8CCCCC8)NC(=O)[C@H](C)NC)NC [AZD5582] + Nc1nc2[nH]cc(CCc3ccc(C(=O)N[C@@H](CCC(=O)O)C(=O)O)cc3)c2c(=O)[nH]1 [Pemetrexed] (partner 0.2 µM)
Method in brief: as §1

[4] = compound: Cn1nnc2c(C(N)=O)ncn2c1=O [Temozolomide] + N=C(N)NC(=N)NCCc1ccccc1 [Phenformin] (partner 250 µM)
Method in brief: as §1

Cell Line | relative viability ([1]; first compound 0.001581 µM) | relative viability ([1]; first compound 0.005 µM) | relative viability ([1]; first compound 0.01581 µM) | relative viability ([1]; first compound 0.05 µM) | relative viability ([2]; first compound 0.001581 µM) | relative viability ([2]; first compound 0.005 µM) | relative viability ([2]; first compound 0.05 µM) | relative viability ([3]; first compound 0.001581 µM) | relative viability ([3]; first compound 0.005 µM) | relative viability ([3]; first compound 0.05 µM) | relative viability ([4]; first compound 0.2 µM) | relative viability ([4]; first compound 0.6325 µM) | relative viability ([4]; first compound 2 µM) | relative viability ([4]; first compound 6.325 µM) | relative viability ([4]; first compound 20 µM) | relative viability ([2]; first compound 0.01581 µM) | relative viability ([3]; first compound 0.01581 µM)
NCI-H1395 | 0.703 | 0.714 | 0.81 | 0.797 | 0.346 | 0.376 | 0.406 | 0.852 | 0.964 | 1.13 | 0.458 | 0.428 | 0.494 | 0.435 | 0.461 | – | –
NCI-H1437 | 0.373 | 0.385 | 0.399 | 0.358 | 1.1 | 1.14 | 1.14 | 0.337 | 0.294 | 0.326 | 0.346 | 0.348 | 0.378 | 0.289 | 0.34 | 1.09 | 0.263
NCI-H1651 | 0.727 | 0.845 | – | 0.918 | 0.419 | 0.456 | 0.388 | 0.507 | 0.562 | 0.638 | 0.388 | 0.332 | 0.353 | 0.268 | 0.351 | 0.398 | 0.52
NCI-H1666 | 0.539 | 0.682 | 0.638 | 0.678 | 0.774 | 0.85 | 0.746 | 0.788 | 0.879 | 0.71 | 0.575 | 0.584 | 0.585 | 0.526 | 0.594 | 0.737 | 0.794
NCI-H1734 | 0.255 | 0.263 | 0.257 | 0.313 | 0.502 | 0.498 | 0.749 | 0.406 | 0.407 | 0.437 | 0.474 | 0.454 | 0.437 | 0.383 | 0.342 | 0.584 | 0.415
NCI-H1755 | 0.523 | 0.652 | 0.599 | 0.587 | 0.438 | 0.472 | 0.494 | 0.399 | 0.375 | 0.414 | 0.68 | 0.598 | 0.621 | 0.547 | 0.532 | 0.291 | 0.387
NCI-H1793 | 0.241 | 0.486 | 0.303 | 0.454 | 0.254 | 0.795 | 0.487 | 0.787 | 1.21 | 1.07 | – | 0.359 | 0.394 | 0.297 | 0.323 | 0.277 | 0.624
NCI-H1915 | 0.379 | 0.452 | 0.447 | 0.42 | 0.657 | 0.672 | 0.495 | 0.437 | 0.428 | 0.497 | 0.393 | 0.385 | 0.35 | 0.268 | 0.259 | 0.673 | 0.506
NCI-H1944 | 0.226 | 0.25 | 0.266 | 0.297 | 0.316 | 0.523 | 0.581 | 0.455 | 0.556 | 0.62 | 0.219 | 0.183 | 0.233 | 0.19 | 0.2 | 0.475 | 0.521
NCI-H1975 | 0.643 | 0.858 | 0.742 | 0.809 | 0.709 | 0.932 | 0.902 | 0.266 | 0.248 | 0.235 | 0.444 | 0.423 | 0.438 | 0.417 | 0.423 | 0.667 | 0.291
NCI-H1993 | 0.599 | 0.681 | 0.547 | 0.567 | 0.694 | 0.867 | 1.03 | 0.495 | 0.527 | 0.679 | 0.563 | 0.493 | 0.469 | 0.464 | 0.613 | 0.7 | 0.561
NCI-H2085 | 0.716 | 0.708 | 0.798 | 0.606 | 0.987 | 1.02 | 0.948 | 0.999 | 1.07 | 0.848 | 0.594 | 0.707 | 0.809 | 0.689 | 0.649 | 0.855 | 0.482
NCI-H2087 | 0.23 | 0.218 | 0.319 | 0.289 | 1.21 | 1.27 | 1.13 | 0.656 | 0.665 | 0.656 | 0.49 | 0.474 | 0.506 | 0.458 | 0.482 | 1.17 | 0.662
NCI-H2126 | 0.779 | 0.698 | 0.806 | 0.573 | 0.981 | 0.933 | 0.747 | 0.626 | 0.689 | 0.472 | 0.503 | 0.591 | 0.574 | 0.513 | 0.519 | 0.896 | 0.55
NCI-H2170 | 0.647 | 0.716 | 0.746 | 0.829 | 0.813 | 0.884 | 1.04 | 0.26 | 0.249 | 0.269 | – | 0.422 | 0.448 | 0.349 | 0.327 | 0.88 | 0.268
NCI-H2342 | 0.493 | 0.585 | 0.43 | 0.542 | 0.429 | 0.43 | 0.556 | 0.79 | 0.747 | 0.791 | 0.57 | 0.629 | 0.625 | 0.662 | 0.563 | 0.49 | 0.756
